Results on 25 molecules are retold here after patent US20220204473A1, “COMPOUND AS IRAK INHIBITOR” (SHANGHAI MEIYUE BIOTECH DEVELOPMENT CO., LTD., priority 2018, published 2022).

Read-outs that look alike come from different tables or passages of the source.

One data set has as its target T1, human IRAK4 (Homo sapiens, UniProt Q9NWZ3).
T1 construct: purchased Cama (so in the source)
T1 sequence (Q9NWZ3 1-460): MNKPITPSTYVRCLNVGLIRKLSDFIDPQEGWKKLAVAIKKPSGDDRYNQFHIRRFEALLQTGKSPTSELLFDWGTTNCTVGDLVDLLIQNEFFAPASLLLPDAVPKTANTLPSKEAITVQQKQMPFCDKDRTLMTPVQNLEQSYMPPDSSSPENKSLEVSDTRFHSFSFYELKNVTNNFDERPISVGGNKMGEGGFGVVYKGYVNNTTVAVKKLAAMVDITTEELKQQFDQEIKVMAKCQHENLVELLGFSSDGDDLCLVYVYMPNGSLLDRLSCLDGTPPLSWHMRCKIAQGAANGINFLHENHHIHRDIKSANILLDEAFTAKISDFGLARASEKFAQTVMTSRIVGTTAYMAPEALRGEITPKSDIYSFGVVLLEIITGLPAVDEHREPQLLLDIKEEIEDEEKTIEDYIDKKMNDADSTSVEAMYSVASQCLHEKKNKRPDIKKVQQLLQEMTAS
Description: IRAK4 MSA (Mobility-Shift Assay) at Km ATP. The format is biochemical. The settings on record: GST-IRAK4 1 nM, ATP 37 μM (Km); read-out: IC50 for inhibiting human IRAK4 kinase. The method, then: A recombinant fusion protein of N-terminal GST (glutathione-S-transferase) and human IRAK4 was used as enzyme (GST-IRAK4, kinase IRAK4 (Cama)) at a final concentration of 1 nM; ATP (Sigma) was at a final concentration of 37 μM; the substrates used for the kinase reaction were a 5-FAM (5-carboxyfluorescein)-labeled polypeptide (5-FAM-[…]-COOH) and a substrate peptide FAM-P8 (GL Biochem) at final concentrations of […].
In this assay, 500 μM solutions of the compounds were prepared in 100% DMSO, and serially 4-fold diluted to the 10th concentration gradient with 100% DMSO, followed by a 10-fold dilution in the compound buffer (50 mM HEPES. pH 7.5, 0.00015% Brij-35) to give intermediate dilutions of the compounds at a final concentration of 10 μM-0.04 nM containing 10% DMSO respectively, 5 μL of the dilutions were transferred into a black 384-well plate respectively.
IRAK4 was diluted to 2.5 nM in the kinase buffer (50 mM HEPES, pH 7.5, 0.00015% Brij-35, 2 mM DTT). 10 μL of the IRAK4 dilution was transferred to the 384-well plate and co-incubated with the compound for 10-15 min.
The substrate and ATP were diluted to 12.5 μM and 92.5 μM with reaction buffer (50 mM HEPES, pH 7.5, 0.00015% Brij-35, 10 mM MgCl2), respectively. 10 μL of the dilutions were transferred to a 384-well plate and incubated at 28° C. for 1 h respectively. The reaction was terminated by adding 25 μL of 50 mM EDTA to the 384-well plate.
The inhibition rates of IRAK4 by the compounds were calculated by measuring the rate of phosphorylated substrate using a Caliper EZ Reader (PerkinElmer) and the IC50 values were calculated by XL-fit software.

Data set [1] in a line: PK assay in rat (intravenous injection and oral gavage). The settings on record: plasma, male SD rat; for Cmax: read-out: Peak concentration Cmax; for AUC(0-t): read-out: Area under curve AUC0-t; for AUC(0-inf): read-out: Area under curve AUC0-∞; for MRT: read-out: Average retention time MRT; for half-life: read-out: Half life t1/2 (converted). Format: in vivo. How it is done: The rats used for pharmacokinetic study in the example were male SPF-grade SD rats (B&K Universal, Shanghai).
Route of administration: a single dose by oral gavage or intravenous injection
Sampling points: 0.083 h, 0.25 h, 0.5 h, 1 h, 2 h, 4 h, 6 h, 8 h and 24 h after administration
Sample processing: 0.2 mL of venous blood was collected, and let stand on ice before centrifugation to separate plasma (centrifugation conditions: 8000 rpm, 6 min, 4° C.). The separated plasma was stored at −80° C. before analysis.
Internal standard working solution: An appropriate amount of tolbutamide internal standard stock solution at 645,000 ng/mL was added into a volumetric flask, and was diluted to the volume with methanol. The solution was well mixed to give an internal standard working solution with a concentration of 50 ng/mL.
Sample pretreatment: 50 μL of plasma was added into a 1.5-mL centrifuge tube, and added with 250 μL of internal standard solution (methanol of the same volume for the blank control). The solution was well mixed by vortex, and centrifuged for 5 min at 14000 rpm. 200 μL of the supernatant was transferred into a 96-well sample feeding plate, and loaded onto a LC-MS/MS system.
Column: ACQUITY UPLC BEH C18 1.7 μm (50 mm×2.10 mm)
Mobile phase: A: 0.1% aqueous formic acid; B: 0.1% formic acid in acetonitrile
The data processing system was Analyst software (Applied Biosystems, USA, ver 1.5.5).

The subject of data set [2] is TNF-α release in LPS-induced Balb/c female mice. Description: Inhibition of TNF-α release in LPS-induced Balb/c female mice. The settings on record: oral gavage 5 h before LPS induction, serum 1.5 h after stimulation. Further details: concentration or dose not given beside the values. The format is in vivo, mouse. The method, then: In the normal control groups, the animals received an intraperitoneal injection of normal saline (10 mL/kg) and in the model groups, the animals received LPS stimulation (Sigma CAT #L2630, i.p., 10 mL/kg, 0.2 mg/kg). During the assay, to the test compounds, DMSO, Solutol and 10 mM PBS were sequentially added to prepare a solution or suspension of required concentration for administration. For the vehicle, DMSO, Solutol and 10 mM PBS were mixed in a volume ratio of 5:15:80. In each of the groups, the animals were administered through oral gavage (10 mL/kg) 5 h before LPS (or saline) stimulation at predetermined doses, and euthanized with CO2 at 1.5 h after the stimulation for cardiac blood collection. The whole blood was not anticoagulated, incubated in wet ice for 1.5 h, and centrifuged at 2000×g at 4° C. for 10 min to separate the serum. The serum was frozen at −80° C. for TNF-α assay. Quantification of the TNF-α was done with TNF-α ELISA kit according to the manufacturer's instruction.

[3] abbreviates: 1 mg/kg, intravenous injection, 1 mpk.
The mark [4] stands for this setting: 2 mg/kg, oral administration, 2 mpk, 5% DMSO + 15% Solutol + 80% Saline.

As for `COc1cc2nn(CCN3CC(F)(F)C3)cc2cc1NC(=O)c1cccc(C(F)(F)F)n1` [MY-004-017], on human IRAK4, the IC50 (commonly the concentration at which inhibition is half-maximal) turned out to be 36 nM. Take `COc1cc2nn([C@H]3C[C@@H](C(C)(C)O)C3)cc2cc1NC(=O)c1cccc(C(F)(F)F)n1` [MY-004-040]: at human IRAK4, the IC50 was 13 nM.

On to `COc1cc2nn([C@H]3C[C@H](CO)C3)cc2cc1NC(=O)c1cccc(C(F)(F)F)n1` [MY-004-082], for which, at human IRAK4, the IC50 turned out to be 5 nM. Further, the Cmax in data set [1] (1 mg/kg, intravenous injection, 1 mpk, 5% DMSO + 15% Solutol + 80% Saline) is 1320 ng/mL. Further, in data set [1] (setting [3]), the AUC(0-t) worked out at 790 ng·h/mL; the AUC(0-inf) came to 793 ng·h/mL; the MRT (in general, a mean duration of stay, worked out from the concentration-time curve) came out at 31.2 min; the half-life was 30.6 min. Also, the clearance in data set [1] (1 mg/kg, intravenous injection, 1 mpk, read-out: Clearance CL) is 21.9 mL/min/kg. Moreover, the Vd in data set [1] (1 mg/kg, intravenous injection, 1 mpk, read-out: Volume of distribution at steady state VZ) was determined as 0.93 L/kg. Also, in data set [1] (setting [4]), the AUC(0-t) was 416 ng·h/mL, the AUC(0-inf) stood at 424 ng·h/mL, the MRT came out at 161 min and the half-life was 65.4 min. Further, the Cmax in data set [1] (setting [4]) is 114 ng/mL. Besides, in data set [1] (2 mg/kg, oral administration, 2 mpk, 5% DMSO + 15% Solutol + 80% Saline, read-out: Bioavailability F), the bioavailability (commonly dose-corrected exposure relative to a reference, in per cent) was found to be 26.3%. In addition, the Tmax (as a rule, the time at which the peak concentration occurs) in data set [1] (2 mg/kg, oral administration, 2 mpk, 5% DMSO + 15% Solutol + 80% Saline, read-out: Time to peak tmax) amounted to 30 min. As to `COc1cc2nn(C3CC(O)C3)cc2cc1NC(=O)c1cccc(C(F)(F)F)n1` (centres unmarked) [MY-004-084], the IC50 on human IRAK4 was 9.5 nM. For the molecule `COc1cc2nn(C3CC(CO)C3)cc2cc1NC(=O)c1cccc(C(F)(F)F)n1` (centres unmarked) [MY-004-090], on human IRAK4, the half-maximal inhibitory concentration (IC50) came out at 12.3 nM.

As to `COc1cc2nn([C@H]3C[C@H](C(C)(C)O)C3)cc2cc1NC(=O)c1cccc(C)n1` [MY-004-093], the IC50 on human IRAK4 came out at 13 nM. Still for that read-out and setting: the value for `COc1cc2nn([C@H]3C[C@H](C(C)(C)O)C3)cc2cc1NC(=O)c1cnc2ccccc2n1` [MY-004-094] was 41 nM. Same read-out and setting: the value for `COc1cc2nn([C@H]3C[C@@H](C(=O)OC)C3)cc2cc1NC(=O)c1cccc(C(F)(F)F)n1` [MY-004-099] was 35 nM; that for `COc1cc2nn([C@H]3C[C@H](C(=O)OC)C3)cc2cc1NC(=O)c1cccc(C(F)(F)F)n1` [MY-004-100] was 11 nM; that for `CC(C)(O)c1cc2nn([C@H]3C[C@H](C(C)(C)O)C3)cc2cc1NC(=O)c1cccc(C#N)n1` [MY-004-110] was 48 nM. Still for that read-out and setting: the same measure for `CN(C)c1cc2nn([C@H]3C[C@H](C(C)(C)O)C3)cc2cc1NC(=O)c1cccc(F)n1` [MY-004-118]: 16.7 nM. In the case of `COc1cc2nn([C@H]3C[C@H](C(C)(C)O)C3)cc2cc1NC(=O)c1cccc(F)n1` [MY-004-119], the 50% inhibitory concentration (IC50) on human IRAK4 was found to be 14 nM. Regarding `COc1cc2nn([C@H]3CC[C@@H](O)CC3)cc2cc1NC(=O)c1cccc(C(F)(F)F)n1` [MY-004-127-2], the IC50 at human IRAK4 was found to be 4.3 nM. For `COc1cc2nn(C3CC(C)(O)C3)cc2cc1NC(=O)c1cccc(C(F)(F)F)n1` (centres unmarked) [MY-004-128], the IC50 on human IRAK4 turned out to be 6.6 nM. Still for that read-out and setting: the value for `CC(C)(O)[C@H]1C[C@H](n2cc3cc(NC(=O)c4cccc(C(F)(F)F)n4)c(-c4ccccn4)cc3n2)C1` [MY-004-146] was 6.4 nM. Take `CN(C)c1cc2nn([C@H]3CC[C@@H](O)CC3)cc2cc1NC(=O)c1cccc(C(F)(F)F)n1` [MY-004-154]: on human IRAK4, the IC50 stood at 1.6 nM. The “Inhibition rate of TNF-α” value in data set [2] was 87.82%. Consider `CN(C)c1cc2nn([C@H]3CC[C@](C)(O)CC3)cc2cc1NC(=O)c1cccc(C(F)(F)F)n1` [MY-004-167], for which, on human IRAK4, the IC50 is 2.7 nM. Turning to `COc1cc2nn(C3CC(OC)C3)cc2cc1NC(=O)c1cccc(C(F)(F)F)n1` (centres unmarked) [MY-004-168], the IC50 on human IRAK4 stood at 6.3 nM.

Regarding `O=C(Nc1cc2cn([C@H]3CC[C@H](O)CC3)nc2cc1OCC1CC1)c1cccc(C(F)(F)F)n1` [MY-004-217], on human IRAK4, the IC50 came out at 2.2 nM.

As to `O=C(Nc1cc2cn([C@H]3CC[C@@H](O)CC3)nc2cc1OCC1CC1)c1cccc(C(F)(F)F)n1` [MY-004-218], the IC50 on human IRAK4 came to 5.1 nM.

As for `C[C@]1(O)CC[C@@H](n2cc3cc(NC(=O)c4cccc(C(F)(F)F)n4)c(-n4cccn4)cc3n2)CC1` [MY-004-227], at human IRAK4, the IC50 came out at 1.7 nM.

On to `C[C@]1(O)CC[C@H](n2cc3cc(NC(=O)c4cccc(C(F)(F)F)n4)c(-n4cccn4)cc3n2)CC1` [MY-004-228], for which the concentration for half-maximal inhibition (IC50) on human IRAK4 came out at 2 nM. Also, the “Inhibition rate of TNF-α” value in data set [2] amounted to 88.46%. In the case of `CC(C)(O)[C@H]1C[C@H](n2cc3cc(NC(=O)c4cccc(C(F)(F)F)n4)c(-n4cc(C#N)cn4)cc3n2)C1` [MY-004-229], the IC50 at human IRAK4 turned out to be 8.4 nM. The same measure, in the same setting: the value for `CC(C)(O)c1cc2nn([C@H]3CC[C@H](O)CC3)cc2cc1NC(=O)c1cccc(C(F)(F)F)n1` [MY-004-322] was 2.4 nM; that for `CC(C)(O)c1cc2nn([C@H]3CC[C@@H](O)CC3)cc2cc1NC(=O)c1cccc(C(F)(F)F)n1` [MY-004-326] was 6.9 nM.
